Measured values: patent US20140107100A1, “Benzoxazepines as Inhibitors of PI3K/mTOR and Methods of Their Use and Manufacture” (EXELIXIS, INC., priority 2010, published 2014)

Molecular target: mTOR/GbL/Raptor (mTORC1) (Homo sapiens, UniProt P42345)
Test: mTOR/GbL/Raptor (mTORC1) ELISA assay, phosphorylation of 4E-BP1
Assay type: biochemical
Details: 0.2 nM mTORC1, 40 uM ATP, 50 nM NHis-tagged 4E-BP1, 120 minutes; read-out: IC50 in this assay (mTORC1 ELISA)
Outline: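 Phospho-4E-BP1 was quantified by luminescent ELISA (anti-phospho-4E-BP1 IgG, HRP-tagged secondary) after capture of the His-tagged substrate on Ni-chelate plates.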

| IC50 [nM] | SMILES |
| --- | --- |
| ≤ 100 | Cc1ncc(C(C)C)c(N2CCOc3c(C)cc(-c4cnc5sc(N)nc5c4)cc3C2)n1 [Compound 107, 6-{9-methyl-4-[2-methyl-5-(1-methylethyl)pyrimidin-4-yl]-2,3,4,5-tetrahyro-1,4-benzoxazepin-7-yl}[1,3]thiazolo[5,4-b]pyridin-2-amine] |
| ≤ 100 | Cc1cc(-c2cnc3sc(N)nc3c2)cc2c1OCCN(c1ncnc(Cl)c1C(C)C)C2 [Compound 108, 6-{4-[6-chloro-5-(1-methylethyl)pyrimidin-4-yl]-9-methyl-2,3,4,5-tetrahydro-1,4-benzoxazepin-7-yl}[1,3]thiazolo[5,4-b]pyridin-2-amine] |
| 100 to 500 | CCn1cc(-c2cc(C)c3c(c2)CN(c2nc(N)nc(C)c2C(C)C)CCO3)cn1 [Compound 111, 4-[7-(1-ethyl-1H-pyrazol-4-yl)-9-methyl-2,3-dihydro-1,4-benzoxazepin-4(5H)-yl]-6-methyl-5-(1-methylethyl)pyrimidin-2-amine] |
| 100 to 500 | CNc1nc(-c2cc(C)c3c(c2)CN(c2nc(N)nc(C)c2C(C)C)CCO3)cs1 [Compound 112, 4-methyl-5-(1-methylethyl)-6-{9-methyl-7-[2-(methylamino)-1,3-thiazol-4-yl]-2,3-dihydro-1,4-benzoxazepin-4(5H)-yl}pyrimidin-2-amine] |
| ≤ 100 | CCNC(=O)c1nc(C)c(C(C)C)c(N2CCOc3c(C)cc(-c4cnc5sc(N)nc5c4)cc3C2)n1 [Compound 113, 4-[7-(2-amino[1,3]thiazolo[5,4-b]pyridin-6-yl)-9-methyl-2,3-dihydro-1,4-benzoxazepin-4(5H)-yl]-N-ethyl-6-methyl-5-(1-methylethyl)pyrimidine-2-carboxamide] |
| 100 to 500 | CSc1nc(Cl)c(C(C)(C)O)c(N2CCOc3c(C)cc(-c4cnc5sc(N)nc5c4)cc3C2)n1 [Compound 114, 2-{4-[7-(2-amino[1,3]thiazolo[5,4-b]pyridin-6-yl)-9-methyl-2,3-dihydro-1,4-benzoxazepin-4(5H)-yl]-6-chloro-2-(methylthio)pyrimidin-5-yl}propan-2-ol] |
| ≤ 100 | C=Cc1c(C)ncnc1N1CCOc2c(C)cc(-c3cnc4sc(N)nc4c3)cc2C1 [Compound 115, 6-[4-(5-ethenyl-6-methylpyrimidin-4-yl)-9-methyl-2,3,4,5-tetrahydro-1,4-benzoxazepin-7-yl][1,3]thiazolo[5,4-b]pyridin-2-amine] |
| ≤ 100 | Cc1cc(-c2cnc3sc(N)nc3c2)cc2c1OCCN(c1ncncc1C(C)C)C2 [Compound 116, 6-{9-methyl-4-[5-(1-methylethyl)pyrimidin-4-yl]-2,3,4,5-tetrahydro-1,4-benzoxazepin-7-yl}[1,3]thiazolo[5,4-b]pyridin-2-amine] |
| 100 to 500 | Cc1cc(-c2cnn(C)c2)cc2c1OCCN(c1nc(N)nc(C)c1C(C)C)C2 [Compound 117, 4-methyl-5-(1-methylethyl)-6-[9-methyl-7-(1-methyl-1H-pyrazol-4-yl)-2,3-dihydro-1,4-benzoxazepin-4(5H)-yl]pyrimidin-2-amine] |
| 100 to 500 | Cc1ncc(-c2cc(C)c3c(c2)CN(c2nc(N)nc(C)c2C(C)C)CCO3)s1 [Compound 118, 4-methyl-5-(1-methylethyl)-6-[9-methyl-7-(2-methyl-1,3-thiazol-5-yl)-2,3-dihydro-1,4-benzoxazepin-4(5H)-yl]pyrimidin-2-amine] |
| ≤ 100 | CC(=O)NCc1nc(C)c(C(C)C)c(N2CCOc3c(C)cc(-c4cnc5sc(N)nc5c4)cc3C2)n1 [Compound 119, N-({4-[7-(2-amino[1,3]thiazolo[5,4-b]pyridin-6-yl)-9-methyl-2,3-dihydro-1,4-benzoxazepin-4(5H)-yl]-6-methyl-5-(1-methylethyl)pyrimidin-2-yl}methyl)acetamide] |
| ≤ 100 | Cc1cc(-c2cnc3sc(N)nc3c2)cc2c1OCCN(c1nc(CF)nc(C)c1C(C)C)C2 [Compound 120, 6-{4-[2-(fluoromethyl)-6-methyl-5-(1-methylethyl)pyrimidin-4-yl]-9-methyl-2,3,4,5-tetrahydro-1,4-benzoxazepin-7-yl}[1,3]thiazolo[5,4-b]pyridin-2-amine] |
| ≤ 100 | Cc1cc(-c2cnc3sc(N)nc3c2)cc2c1OCCN(c1nc(CNC3CC3)nc(C)c1C(C)C)C2 [Compound 121, 6-(4-{2-[(cyclopropylamino)methyl]-6-methyl-5-(1-methylethyl)pyrimidin-4-yl}-9-methyl-2,3,4,5-tetrahydro-1,4-benzoxazepin-7-yl)[1,3]thiazolo[5,4-b]pyridin-2-amine] |
| ≤ 100 | C=C(C)c1c(C)ncnc1N1CCOc2c(C)cc(-c3cnc4sc(N)nc4c3)cc2C1 [Compound 124, 6-{9-methyl-4-[6-methyl-5-(1-methylethenyl)pyrimidin-4-yl]-2,3,4,5-tetrahydro-1,4-benzoxazepin-7-yl}[1,3]thiazolo[5,4-b]pyridin-2-amine] |
| ≤ 100 | CC(=O)c1c(C)ncnc1N1CCOc2c(C)cc(-c3cnc4sc(N)nc4c3)cc2C1 [Compound 125, 1-{4-[7-(2-amino[1,3]thiazolo[5,4-b]pyridin-6-yl)-9-methyl-2,3-dihydro-1,4-benzoxazepin-4(5H)-yl]-6-methylpyrimidin-5-yl}ethanone] |
| ≤ 100 | Cc1cc(-c2cnc3sc(N)nc3c2)cc2c1OCCN(c1nc(CNCCF)nc(C)c1C(C)C)C2 [Compound 126, 6-{4-[2-{[(2-fluoroethyl)amino]methyl}-6-methyl-5-(1-methylethyl)pyrimidin-4-yl]-9-methyl-2,3,4,5-tetrahydro-1,4-benzoxazepin-7-yl}[1,3]thiazolo[5,4-b]pyridin-2-amine] |
| ≤ 100 | COCCc1c(C)nc(CN2CCCC2)nc1N1CCOc2c(C)cc(-c3cnc4sc(N)nc4c3)cc2C1 [Compound 127, 6-(9-methyl-4-{6-methyl-5-[2-(methyloxy)ethyl]-2-(pyrrolidin-1-ylmethyl)pyrimidin-4-yl}-2,3,4,5-tetrahydro-1,4-benzoxazepin-7-yl)[1,3]thiazolo[5,4-b]pyridin-2-amine] |
| ≤ 100 | Cc1cc(-c2cnc3sc(N)nc3c2)cc2c1OCCN(c1nc(C(F)(F)F)nc(C)c1C(C)C)C2 [Compound 128, 6-{9-methyl-4-[6-methyl-5-(1-methylethyl)-2-(trifluoromethyl)pyrimidin-4-yl]-2,3,4,5-tetrahydro-1,4-benzoxazepin-7-yl}[1,3]thiazolo[5,4-b]pyridin-2-amine] |
| ≤ 100 | COCCc1c(C)ncnc1N1CCOc2c(C)cc(-c3cnc4sc(N)nc4c3)cc2C1 [Compound 129, 6-(9-methyl-4-{6-methyl-5-[2-(methyloxy)ethyl]pyrimidin-4-yl}-2,3,4,5-tetrahydrio-1,4-benzoxazepin-7-yl)[1,3]thiazolo[5,4-b]pyridin-2-amine] |
| ≤ 100 | C=C(C)c1c(C)nc(N)nc1N1CCOc2c(C)cc(-c3cnc4sc(N)nc4c3)cc2C1 [Compound 130, 6-{4-[2-amino-6-methyl-5-(1-methylethenyl)pyrimidin-4-yl]-9-methyl-2,3,4,5-tetrahydro-1,4-benzoxazepin-7-yl}[1,3]thiazolo[5,4-b]pyridin-2-amine] |
| 100 to 500 | Cc1cc(-c2cnc3sc(N)nc3c2)cc2c1OCCN(c1ncnc(Cl)c1C(C)(C)O)C2 [Compound 131, 2-{4-[7-(2-amino[1,3]thiazolo[5,4-b]pyridin-6-yl)-9-methyl-2,3-dihydro-1,4-benzoxazepin-4(5H)-yl]-6-chloropyrimidin-5-yl}propan-2-ol] |
| ≤ 100 | COCCc1c(C)nc(C)nc1N1CCOc2c(C)cc(-c3cnc4sc(N)nc4c3)cc2C1 [Compound 132, 6-(4-{2,6-dimethyl-5-[2-(methyloxy)ethyl]pyrimidin-4-yl}-9-methyl-2,3,4,5-tetrahydro-1,4-benzoxazepin-7-yl)[1,3]thiazolo[5,4-b]pyridin-2-amine] |
| ≤ 100 | Cc1cc(-c2cnc3sc(N)nc3c2)cc2c1OCCN(c1nc(C3CNC3)nc(C)c1C(C)C)C2 [Compound 133, 6-{4-[2-azetidin-3-yl-6-methyl-5-(1-methylethyl)pyrimidin-4-yl]-9-methyl-2,3,4,5-tetrahydro-1,4-benzoxazepin-7-yl}[1,3]thiazolo[5,4-b]pyridin-2-amine] |
| ≤ 100 | Cc1cc(-c2cnc3sc(N)nc3c2)cc2c1OCCN(c1nc(CN)nc(C)c1C(C)C)C2 [Compound 134, 6-{4-[2-(aminomethyl)-6-methyl-5-(1-methylethyl)pyrimidin-4-yl]-9-methyl-2,3,4,5-tetrahydro-1,4-benzoxazepin-7-yl}[1,3]thiazolo[5,4-b]pyridin-2-amine] |
| ≤ 100 | COCCc1cnc(C)nc1N1CCOc2c(C)cc(-c3cnc4sc(N)nc4c3)cc2C1 [Compound 135, 6-(9-methyl-4-{2-methyl-5-[2-(methyloxy)ethyl]pyrimidin-4-yl}-2,3,4,5-tetrahydro-1,4-benzoxazepin-7-yl)[1,3]thiazolo[5,4-b]pyridin-2-amine] |
| ≤ 100 | CNCc1nc(C)c(C(C)C)c(N2CCOc3c(C)cc(-c4cnc5sc(N)nc5c4)cc3C2)n1 [Compound 136, 6-(9-methyl-4-{6-methyl-2-[(methylamino)methyl]-5-(1-methylethyl)pyrimidin-4-yl}-2,3,4,5-tetrahydro-1,4-benzoxazepin-7-yl)[1,3]thiazolo[5,4-b]pyridin-2-amine] |
| ≤ 100 | Cc1cc(-c2nnc(N)s2)cc2c1OCCN(c1nc(N)nc(C)c1C(C)C)C2 [Compound 137, 4-[7-(5-amino-1,3,4-thiadiazol-2-yl)-9-methyl-2,3-dihydro-1,4-benzoxazepin-4(5H)-yl]-6-methyl-5-(1-methylethyl)pyrimidin-2-amine] |
| ≤ 100 | C#CCc1c(C)nc(C)nc1N1CCOc2c(C)cc(-c3cnc4sc(N)nc4c3)cc2C1 [Compound 138, 6-[4-(2,6-dimethyl-5-prop-2-yn-1-ylpyrimidin-4-yl)-9-methyl-2,3,4,5-tetrahydro-1,4-benzoxazepin-7-yl][1,3]thiazolo[5,4-b]pyridin-2-amine] |
